Active and inactive are the calls of the source. No cut-off for these calls is given here.

We go through 8 compounds from ChEMBL document CHEMBL4261581, “Synthesis and evaluation of 4-cycloheptylphenols as selective Estrogen receptor-β agonists (SERBAs)” (Eur J Med Chem, 2018).

The target in data set [1] is T1, Estrogen receptor beta (Homo sapiens, UniProt Q92731). Briefly: Inhibition of fluorescein-tagged estrogen binding to GST-tagged ERbeta (unknown origin) ligand binding domain after 1 hr by LanthaScreen TR-FRET assay. On the technique in general: TR-FRET usually uses a lanthanide donor and a delayed reading to cut background.
T1 sequence (Q92731 whole entry, the tested form may be a part): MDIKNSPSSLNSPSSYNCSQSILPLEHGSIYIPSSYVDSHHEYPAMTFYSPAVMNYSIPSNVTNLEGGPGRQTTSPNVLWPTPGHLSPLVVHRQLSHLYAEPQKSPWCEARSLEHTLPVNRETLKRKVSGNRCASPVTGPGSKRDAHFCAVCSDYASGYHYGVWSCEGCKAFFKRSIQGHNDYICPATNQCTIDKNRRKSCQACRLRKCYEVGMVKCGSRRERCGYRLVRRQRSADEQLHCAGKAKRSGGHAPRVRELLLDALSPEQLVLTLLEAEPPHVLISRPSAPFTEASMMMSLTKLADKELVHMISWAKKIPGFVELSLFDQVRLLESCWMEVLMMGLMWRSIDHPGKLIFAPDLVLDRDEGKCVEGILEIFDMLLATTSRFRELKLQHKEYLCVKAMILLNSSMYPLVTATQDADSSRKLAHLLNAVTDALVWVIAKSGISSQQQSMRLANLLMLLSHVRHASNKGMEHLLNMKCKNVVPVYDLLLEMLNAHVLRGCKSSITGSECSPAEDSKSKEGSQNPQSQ
The target in data set [2] is T2, Estrogen receptor (Homo sapiens, UniProt P03372).
T2 sequence (P03372 whole entry): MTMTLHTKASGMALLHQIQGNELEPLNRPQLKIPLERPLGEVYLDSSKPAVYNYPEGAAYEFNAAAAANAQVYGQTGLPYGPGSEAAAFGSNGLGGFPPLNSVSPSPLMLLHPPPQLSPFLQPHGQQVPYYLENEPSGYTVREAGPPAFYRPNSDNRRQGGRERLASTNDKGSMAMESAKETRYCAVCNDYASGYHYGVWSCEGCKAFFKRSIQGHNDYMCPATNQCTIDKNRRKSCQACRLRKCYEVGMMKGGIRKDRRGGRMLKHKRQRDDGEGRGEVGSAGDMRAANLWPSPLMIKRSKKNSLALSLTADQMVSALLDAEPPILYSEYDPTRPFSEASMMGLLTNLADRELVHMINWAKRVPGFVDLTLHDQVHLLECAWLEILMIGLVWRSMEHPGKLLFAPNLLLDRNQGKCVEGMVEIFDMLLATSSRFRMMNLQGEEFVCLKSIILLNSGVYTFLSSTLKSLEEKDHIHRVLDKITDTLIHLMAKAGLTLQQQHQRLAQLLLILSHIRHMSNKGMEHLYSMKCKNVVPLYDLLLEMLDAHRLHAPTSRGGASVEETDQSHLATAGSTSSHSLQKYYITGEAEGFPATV
Briefly: Agonist activity at full length ERalpha (unknown origin) after 24 hrs by ERE-driven luciferase reporter gene assay.

Data set [3] has as its target T1, Estrogen receptor beta.
Description: Antagonist activity at full length ERbeta (unknown origin) assessed as reduction in E2 induced response after 24 hrs by cell based ERE-driven luciferase reporter gene assay
For data set [4], the target named is T2, Estrogen receptor. Description: Antagonist activity at full length ERalpha (unknown origin) assessed as reduction in E2 induced response after 24 hrs by cell based ERE-driven luciferase reporter gene assay.
The target of data set [5] is T1, Estrogen receptor beta. Description: Agonist activity at full length ERbeta (unknown origin) after 24 hrs by cell based ERE-driven luciferase reporter gene assay. On the technique in general: A reporter such as luciferase makes a cellular process visible.
A further data set has as its target Cytochrome P450 1A2 (Homo sapiens, UniProt P05177). Description: Inhibition of CYP1A2 (unknown origin) using luciferin-ME as substrate preincubated for 10 mins followed by NADPH regeneration system addition and measured after 10 to 30 mins by Promega P450-GloScreening assay. The class given is ADME.
Data set [6] is described as follows: Solubility of the compound in buffer containing 20 mM potassium phosphate of pH 7.5 and 1% DMSO up to 250 uM by nephelometry. The class given is physicochemical.
For data set [7], the target named is T2, Estrogen receptor. Briefly: Inhibition of fluorescein-tagged estrogen binding to GST-tagged ERalpha (unknown origin) ligand binding domain after 1 hr by LanthaScreen TR-FRET assay.
Another data set relates to MCF7. Briefly: Antiproliferative activity against human MCF7 cells at 0.01 to 10 uM after 24 hrs by MTT assay. Type of data set: functional, cell-based. In general terms: Tetrazolium dyes change colour on reduction, which living cells bring about.
Data set [8] addresses 5-hydroxytryptamine receptor 6 (Homo sapiens) (UniProt P50406). Briefly: Displacement of [3H]-LSD from human 5-HT6 receptor expressed in stable HEK cells at 10 uM after 90 mins by microbeta scintillation counting method. The class given is cell-based.
In data set [9] the target is Beta-1 adrenergic receptor (Homo sapiens) (UniProt P08588). Description: Displacement of [3H]-Pindolol from human adrenergic beta1 receptor expressed in Flp-In CHO cells at 10 uM after 90 mins by microbeta scintillation counting method. The class given is cell-based.
Sequence of Beta-1 adrenergic receptor (Homo sapiens) (P08588 whole entry, looked up): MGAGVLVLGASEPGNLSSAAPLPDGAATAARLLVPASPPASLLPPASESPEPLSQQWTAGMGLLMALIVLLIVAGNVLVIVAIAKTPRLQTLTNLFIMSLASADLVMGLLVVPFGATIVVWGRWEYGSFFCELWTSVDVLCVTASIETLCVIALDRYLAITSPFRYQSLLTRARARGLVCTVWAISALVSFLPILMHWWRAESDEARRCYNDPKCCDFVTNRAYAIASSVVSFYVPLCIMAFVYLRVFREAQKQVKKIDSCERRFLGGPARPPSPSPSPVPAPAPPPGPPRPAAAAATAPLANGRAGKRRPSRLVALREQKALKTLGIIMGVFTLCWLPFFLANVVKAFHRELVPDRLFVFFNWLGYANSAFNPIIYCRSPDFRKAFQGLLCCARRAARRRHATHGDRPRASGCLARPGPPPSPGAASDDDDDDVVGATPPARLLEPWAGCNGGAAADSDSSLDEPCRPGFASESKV
For a further data set, the target named is hERG (KCNH2) (Homo sapiens, UniProt Q12809). Description: Displacement of [3H]-dofetilide from human ERG expressed in HEK cells at 10 uM after 90 mins by microbeta scintillation counting method. Type of data set: cell-based. The settings on record: HEK cells expressing human ERG, probe [3H]-dofetilide.
Sequence of hERG (KCNH2) (Q12809 whole entry): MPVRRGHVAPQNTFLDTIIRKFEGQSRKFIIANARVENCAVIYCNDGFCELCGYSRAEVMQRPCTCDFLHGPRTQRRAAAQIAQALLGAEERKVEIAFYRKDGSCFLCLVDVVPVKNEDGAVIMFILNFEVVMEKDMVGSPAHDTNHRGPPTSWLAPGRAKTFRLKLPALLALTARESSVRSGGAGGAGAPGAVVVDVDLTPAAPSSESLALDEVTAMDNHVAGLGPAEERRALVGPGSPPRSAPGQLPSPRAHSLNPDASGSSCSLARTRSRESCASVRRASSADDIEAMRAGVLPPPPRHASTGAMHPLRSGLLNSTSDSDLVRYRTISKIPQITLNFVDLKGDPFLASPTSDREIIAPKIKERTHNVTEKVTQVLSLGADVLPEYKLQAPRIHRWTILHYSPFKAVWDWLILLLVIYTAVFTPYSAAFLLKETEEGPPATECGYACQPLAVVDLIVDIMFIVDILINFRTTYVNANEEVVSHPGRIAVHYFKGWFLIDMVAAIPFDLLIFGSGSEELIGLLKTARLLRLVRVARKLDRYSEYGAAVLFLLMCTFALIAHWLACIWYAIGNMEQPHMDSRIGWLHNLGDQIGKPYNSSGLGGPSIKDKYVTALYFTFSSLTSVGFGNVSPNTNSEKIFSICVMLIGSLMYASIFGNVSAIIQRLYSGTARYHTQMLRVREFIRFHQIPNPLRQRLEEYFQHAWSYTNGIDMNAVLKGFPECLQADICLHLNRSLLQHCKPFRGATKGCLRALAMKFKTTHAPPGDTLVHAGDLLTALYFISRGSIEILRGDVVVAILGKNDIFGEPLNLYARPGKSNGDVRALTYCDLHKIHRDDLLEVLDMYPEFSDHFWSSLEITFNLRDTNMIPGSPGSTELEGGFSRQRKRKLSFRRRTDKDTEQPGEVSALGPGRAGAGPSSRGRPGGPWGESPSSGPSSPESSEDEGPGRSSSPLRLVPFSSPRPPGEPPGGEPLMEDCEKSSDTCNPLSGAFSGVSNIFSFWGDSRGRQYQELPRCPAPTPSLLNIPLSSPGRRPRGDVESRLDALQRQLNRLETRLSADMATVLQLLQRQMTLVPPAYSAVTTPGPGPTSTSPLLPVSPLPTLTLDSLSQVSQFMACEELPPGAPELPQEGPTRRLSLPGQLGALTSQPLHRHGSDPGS
Data set [10] concerns the target 5-hydroxytryptamine receptor 1D (Homo sapiens) (UniProt P28221). Briefly: Displacement of [3H]-5-CT from human 5-HT1D receptor expressed in HEKT cells at 10 uM after 90 mins by microbeta scintillation counting method. The class given is cell-based.
In data set [11] the target is 5-hydroxytryptamine receptor 1A (Homo sapiens) (UniProt P08908). Description: Displacement of [3H]-WAY100635 from human 5HT1A receptor expressed in stable CHO cells at 10 uM after 90 mins by microbeta scintillation counting method. The class given is cell-based.
Sequence of 5-hydroxytryptamine receptor 1A (Homo sapiens) (P08908 whole entry): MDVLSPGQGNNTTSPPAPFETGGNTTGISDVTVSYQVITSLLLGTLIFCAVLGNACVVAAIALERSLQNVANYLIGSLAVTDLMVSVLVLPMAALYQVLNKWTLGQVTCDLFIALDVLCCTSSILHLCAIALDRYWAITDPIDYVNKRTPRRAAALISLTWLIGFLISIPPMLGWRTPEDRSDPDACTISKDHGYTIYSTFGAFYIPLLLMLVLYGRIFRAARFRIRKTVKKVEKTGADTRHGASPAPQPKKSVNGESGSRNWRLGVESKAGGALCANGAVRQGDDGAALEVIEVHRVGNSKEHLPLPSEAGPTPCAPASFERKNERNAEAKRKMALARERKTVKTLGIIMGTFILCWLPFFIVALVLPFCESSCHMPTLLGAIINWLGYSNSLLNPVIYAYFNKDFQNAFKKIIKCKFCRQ
Another data set addresses Cytochrome P450 2D6 (Homo sapiens, UniProt P10635). Description: Inhibition of CYP2D6 (unknown origin) using luciferin-ME EGE as substrate preincubated for 10 mins followed by NADPH regeneration system addition and measured after 30 to 45 mins by Promega P450-GloScreening assay. The class given is ADME.
Data set [12] addresses Histamine H2 receptor (Homo sapiens) (UniProt P25021). Briefly: Displacement of [125I]-iodoaminopotentidine from human histamine H2 receptor expressed in HEK Flp-In cells at 10 uM after 90 mins by microbeta scintillation counting method. The class given is cell-based.
A further data set addresses Cytochrome P450 3A4 (Homo sapiens, UniProt P08684). Description: Inhibition of CYP3A4 (unknown origin) using luciferin-IPA as substrate preincubated for 10 mins followed by NADPH regeneration system addition and measured after 10 to 30 mins by Promega P450-GloScreening assay. The class given is ADME.
Data set [13] concerns the target 5-hydroxytryptamine receptor 2B (Homo sapiens) (UniProt P41595). Briefly: Displacement of [3H]-LSD from human 5-HT2B receptor expressed in stable HEK cells at 10 uM after 90 mins by microbeta scintillation counting method. Type of data set: cell-based.
Data set [14] has as its target Sigma non-opioid intracellular receptor 1 (Homo sapiens) (UniProt Q99720). Description: Displacement of [3H]-Pentazocine from human sigma1 receptor expressed in HEKT cells at 10 uM after 90 mins by microbeta scintillation counting method. Type of data set: cell-based.
Data set [15] concerns the target Beta-3 adrenergic receptor (Homo sapiens) (UniProt P13945). Description: Displacement of [3H]-CGP12177 from human adrenergic beta3 receptor expressed in Flp-In HEK cells at 10 uM after 90 mins by microbeta scintillation counting method. The class given is cell-based.
Data set [16] has as its target Histamine H2 receptor (Homo sapiens) (UniProt P25021). Briefly: Displacement of [3H]-histamine from human histamine H2 receptor expressed in HEKT cells at 10 uM after 90 mins by microbeta scintillation counting method. Type of data set: cell-based.
For the next data set, the target named is Cytochrome P450 2C9 (Homo sapiens, UniProt P11712). Description: Inhibition of CYP2C9 (unknown origin) using luciferin-H as substrate preincubated for 10 mins followed by NADPH regeneration system addition and measured after 30 mins by Promega P450-GloScreening assay. The class given is ADME.
Sequence of Cytochrome P450 2C9 (P11712 whole entry): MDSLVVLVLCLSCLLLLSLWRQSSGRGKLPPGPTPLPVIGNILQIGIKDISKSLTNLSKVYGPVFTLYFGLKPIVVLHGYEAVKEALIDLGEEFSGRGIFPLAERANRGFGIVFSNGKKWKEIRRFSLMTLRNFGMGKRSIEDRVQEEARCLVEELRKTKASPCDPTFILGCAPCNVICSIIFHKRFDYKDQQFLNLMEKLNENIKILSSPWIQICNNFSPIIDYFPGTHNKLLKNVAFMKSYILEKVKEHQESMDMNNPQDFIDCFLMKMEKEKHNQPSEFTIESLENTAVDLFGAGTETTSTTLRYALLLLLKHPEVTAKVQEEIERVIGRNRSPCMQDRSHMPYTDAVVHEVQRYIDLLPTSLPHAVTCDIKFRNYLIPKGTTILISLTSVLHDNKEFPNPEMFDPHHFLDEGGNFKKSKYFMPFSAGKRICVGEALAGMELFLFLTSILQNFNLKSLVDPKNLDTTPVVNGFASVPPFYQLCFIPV
For data set [17], the target named is 5-hydroxytryptamine receptor 7 (Homo sapiens) (UniProt P34969). Briefly: Displacement of [3H]-LSD from human 5-HT7A receptor expressed in stable HEK cells at 10 uM after 90 mins by microbeta scintillation counting method. The class given is cell-based.
Sequence of 5-hydroxytryptamine receptor 7 (Homo sapiens) (P34969 whole entry): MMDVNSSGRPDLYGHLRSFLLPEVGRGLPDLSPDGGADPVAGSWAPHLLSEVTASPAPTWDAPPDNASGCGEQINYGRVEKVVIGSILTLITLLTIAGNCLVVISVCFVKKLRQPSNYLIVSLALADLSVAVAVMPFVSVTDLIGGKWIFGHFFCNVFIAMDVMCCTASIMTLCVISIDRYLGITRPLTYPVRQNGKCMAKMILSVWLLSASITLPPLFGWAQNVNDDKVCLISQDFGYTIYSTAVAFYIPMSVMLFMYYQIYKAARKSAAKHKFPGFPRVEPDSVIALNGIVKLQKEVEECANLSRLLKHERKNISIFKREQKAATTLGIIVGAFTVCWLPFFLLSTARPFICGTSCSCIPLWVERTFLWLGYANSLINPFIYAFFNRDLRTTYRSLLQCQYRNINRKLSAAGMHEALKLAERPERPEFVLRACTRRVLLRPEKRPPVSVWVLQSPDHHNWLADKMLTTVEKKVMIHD
The target in data set [18] is Alpha-1A adrenergic receptor (Homo sapiens) (UniProt P35348). Briefly: Displacement of [3H]-Prazosin from human adrenergic alpha1A receptor at 10 uM after 90 mins by microbeta scintillation counting method.
The target of data set [19] is Alpha-1B adrenergic receptor (Homo sapiens) (UniProt P35368). Description: Displacement of [3H]-Prazosin from human adrenergic alpha1B receptor expressed in HEKT cells at 10 uM after 90 mins by microbeta scintillation counting method. Type of data set: cell-based.
Sequence of Alpha-1B adrenergic receptor (Homo sapiens) (P35368 whole entry): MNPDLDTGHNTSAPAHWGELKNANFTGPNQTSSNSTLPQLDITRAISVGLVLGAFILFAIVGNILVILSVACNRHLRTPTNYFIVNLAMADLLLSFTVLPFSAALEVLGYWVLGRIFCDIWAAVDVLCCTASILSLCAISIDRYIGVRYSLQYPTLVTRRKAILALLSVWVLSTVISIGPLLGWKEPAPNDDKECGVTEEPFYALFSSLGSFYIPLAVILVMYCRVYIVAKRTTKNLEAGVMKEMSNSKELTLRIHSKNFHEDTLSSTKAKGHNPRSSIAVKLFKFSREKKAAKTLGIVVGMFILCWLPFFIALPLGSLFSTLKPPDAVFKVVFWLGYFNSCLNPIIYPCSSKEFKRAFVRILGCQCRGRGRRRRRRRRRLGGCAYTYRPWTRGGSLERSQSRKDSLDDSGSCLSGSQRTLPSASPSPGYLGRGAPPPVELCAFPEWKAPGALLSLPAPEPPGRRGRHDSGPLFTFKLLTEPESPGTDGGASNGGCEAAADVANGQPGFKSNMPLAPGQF
The target in data set [20] is Sigma intracellular receptor 2 (Homo sapiens) (UniProt Q5BJF2). Description: Displacement of [3H]-ditolylguanidine from human sigma2 receptor expressed in HEKT cells at 10 uM after 90 mins by microbeta scintillation counting method. Type of data set: cell-based.
Sequence of Sigma intracellular receptor 2 (Homo sapiens) (Q5BJF2 whole entry, the tested form may be a part): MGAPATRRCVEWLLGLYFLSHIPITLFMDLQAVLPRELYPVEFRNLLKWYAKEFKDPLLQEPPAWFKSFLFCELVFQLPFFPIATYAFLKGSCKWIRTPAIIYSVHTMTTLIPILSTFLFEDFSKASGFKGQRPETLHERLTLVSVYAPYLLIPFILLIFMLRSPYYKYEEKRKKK
Another data set has as its target Progesterone receptor (Homo sapiens, UniProt P06401). Briefly: Agonist activity at GAL4 DNA-binding domain fused PR (unknown origin) ligand binding domain expressed in UAS-bla HEK 293T cells assessed as beta-lactamase transcriptional activation by FRET-based GeneBLAzer assay. The class given is cell-based.

Sequence of Histamine H2 receptor (Homo sapiens) (P25021 whole entry): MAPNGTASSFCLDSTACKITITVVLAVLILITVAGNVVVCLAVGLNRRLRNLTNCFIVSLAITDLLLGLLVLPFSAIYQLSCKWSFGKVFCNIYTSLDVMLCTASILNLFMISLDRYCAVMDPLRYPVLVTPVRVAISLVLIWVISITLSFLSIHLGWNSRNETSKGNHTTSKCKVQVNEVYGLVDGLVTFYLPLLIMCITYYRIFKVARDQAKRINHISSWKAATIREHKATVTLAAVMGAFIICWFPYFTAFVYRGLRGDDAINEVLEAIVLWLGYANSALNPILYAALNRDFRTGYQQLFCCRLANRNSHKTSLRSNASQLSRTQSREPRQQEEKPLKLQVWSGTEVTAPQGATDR
Sequence of 5-hydroxytryptamine receptor 1D (Homo sapiens) (P28221 whole entry): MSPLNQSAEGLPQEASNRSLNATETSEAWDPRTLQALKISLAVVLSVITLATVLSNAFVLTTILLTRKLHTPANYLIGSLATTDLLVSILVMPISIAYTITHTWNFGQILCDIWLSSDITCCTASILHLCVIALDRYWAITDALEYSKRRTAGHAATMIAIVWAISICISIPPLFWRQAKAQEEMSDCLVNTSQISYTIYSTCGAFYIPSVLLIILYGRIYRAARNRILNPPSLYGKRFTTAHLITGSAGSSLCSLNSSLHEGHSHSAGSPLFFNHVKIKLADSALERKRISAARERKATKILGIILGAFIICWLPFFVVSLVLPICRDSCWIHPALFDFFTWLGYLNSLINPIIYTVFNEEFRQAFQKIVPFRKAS

A word on the EC50: it is the concentration needed to bring the measured effect to its halfway point. `Oc1ccc(C23CCCC(CC2)CO3)cc1` (racemic) gave an EC50 at Estrogen receptor beta [1] of 509 nM.

Turning to `OCCC1CCCC(c2ccc(O)cc2)CC1` (racemic), the EC50 on Estrogen receptor beta [1] is 75 nM; on Estrogen receptor [2] it was greater than 10000 nM; on Estrogen receptor beta [3], greater than 10000 nM; on Estrogen receptor [4], greater than 10000 nM; on Estrogen receptor beta [5] it was 139 nM.

Turning to `O/N=C1\CCCC(c2ccc(O)cc2)CC1` (racemic), the EC50 on Estrogen receptor beta [1] was 600 nM; on Estrogen receptor [2] it was greater than 10000 nM; at Estrogen receptor beta [3], greater than 10000 nM; at Estrogen receptor [4] it was greater than 10000 nM; on Estrogen receptor beta [5], greater than 800 nM.

In turn, `O=C1CCCC(c2ccc(O)cc2)CC1` (racemic) showed an EC50 at Estrogen receptor beta [1] of 435 nM.

Usually IC50 stands for the midpoint of a concentration-inhibition curve. The term inhibition denotes the change of the read-out against control, counted positive when it falls. In the case of `OCC1CCCC(c2ccc(O)cc2)CC1` (racemic), the EC50 at Estrogen receptor beta [1] was 53 nM; at Estrogen receptor [7] it was 99 nM; on Estrogen receptor [2], 10500 nM; at Estrogen receptor beta [3], greater than 100000 nM; on Estrogen receptor [4], greater than 10000 nM; at Estrogen receptor beta [5], 33 nM. For the same compound, the IC50 was 130000 nM at Cytochrome P450 1A2, 73000 nM on Cytochrome P450 2D6, 33000 nM at Cytochrome P450 3A4 and 2700 nM against Cytochrome P450 2C9. Further, in data set [6], the solubility entry is given as “Soluble”. The outcome in the data set on MCF7 was Active. Besides, the inhibition in data set [8] is 19%; in data set [9], -4.8%; in data set [10] it was 25.3%; in data set [11], 14.6%; in data set [12], 2.7%; in [13], -7.3%. In addition, the inhibition was 17.1% in data set [14]; 16% in data set [15]; -0.1% in data set [16]; -8.5% in data set [17]; -3.7% in data set [18]; -4.9% in data set [19]. Also, the inhibition in [20] was found to be 31.9%. Further, the inhibition at 1.5 h, 10 µM at hERG (KCNH2) was -1.7%.

Regarding `OC[C@@H]1CCC[C@@H](c2ccc(O)cc2)CC1` (stereo in doubt), the 50% effective concentration (EC50) at Estrogen receptor beta [1] was 28 nM; at Estrogen receptor [7] it was 61 nM; on Estrogen receptor [2], greater than 10000 nM; at Estrogen receptor beta [3], greater than 23200 nM; at Estrogen receptor [4], greater than 10000 nM; on Estrogen receptor beta [5], 48 nM.

`OC[C@H]1CCC[C@H](c2ccc(O)cc2)CC1` (stereo in doubt): the EC50 at Estrogen receptor beta [1] was 18 nM; on Estrogen receptor [7] it was 96 nM; on Estrogen receptor [2], greater than 3000 nM; on Estrogen receptor beta [3], greater than 35600 nM; at Estrogen receptor [4] it was greater than 35600 nM; on Estrogen receptor beta [5], 50 nM.

For `CCC(=O)[C@@]1(C)CC[C@H]2[C@@H]3CCC4=CC(=O)CCC4=C3CC[C@@]21C` [PROMEGESTONE], the IC50 on Progesterone receptor worked out at 0.236 nM.
